Assay results taken from ChEMBL document CHEMBL4476865, “Neurotrypsin inhibitors” (2013).
pIC50: −log10 of the molar value.

Columns and labels:
Neurotrypsin = target: T1, Neurotrypsin (Homo sapiens, UniProt P56730); experiment: Inhibition of human neurotrypsin
T1 sequence (P56730 whole entry): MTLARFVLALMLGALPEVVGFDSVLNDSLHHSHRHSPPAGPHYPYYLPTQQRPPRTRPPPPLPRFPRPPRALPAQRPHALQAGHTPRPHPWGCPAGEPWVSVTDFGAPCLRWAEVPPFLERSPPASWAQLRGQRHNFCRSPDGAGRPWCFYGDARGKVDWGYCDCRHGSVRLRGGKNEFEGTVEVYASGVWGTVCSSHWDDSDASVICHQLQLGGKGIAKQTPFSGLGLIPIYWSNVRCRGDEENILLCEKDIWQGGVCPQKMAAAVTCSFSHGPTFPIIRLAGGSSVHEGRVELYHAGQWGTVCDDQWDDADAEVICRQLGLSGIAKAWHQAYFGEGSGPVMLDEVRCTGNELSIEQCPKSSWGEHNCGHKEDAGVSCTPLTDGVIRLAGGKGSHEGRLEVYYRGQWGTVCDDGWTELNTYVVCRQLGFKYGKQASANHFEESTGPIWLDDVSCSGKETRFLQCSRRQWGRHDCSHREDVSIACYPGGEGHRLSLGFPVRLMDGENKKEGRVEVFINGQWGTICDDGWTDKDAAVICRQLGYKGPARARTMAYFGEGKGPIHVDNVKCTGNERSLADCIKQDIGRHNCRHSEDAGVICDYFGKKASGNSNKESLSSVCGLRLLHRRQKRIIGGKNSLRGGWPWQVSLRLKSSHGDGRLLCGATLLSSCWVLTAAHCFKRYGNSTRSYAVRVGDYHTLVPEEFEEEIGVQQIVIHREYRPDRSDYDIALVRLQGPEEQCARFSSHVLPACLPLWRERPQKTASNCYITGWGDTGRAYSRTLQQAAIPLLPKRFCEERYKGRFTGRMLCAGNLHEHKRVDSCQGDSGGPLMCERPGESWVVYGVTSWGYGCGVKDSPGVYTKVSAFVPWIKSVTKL

[1] = Inhibition of hog trypsin assessed as reduction in liberation of free para-nitroanilide using S-2222 substrate incubated for 20 to 30 mins; design: species or system Sus scrofa
[2] = Toxicity in C57/BL6 mouse assessed as weight loss dosed 3 times at 25 mg/kg, ip equivalent of active ingredient administered with 8 hrs gap between dose 1 and dose 2 and 16 hrs gap between dose 2 and dose 3 (reference value: 5.67%); assay type: organism-based; details: in vivo

SMILES	pIC50 (Neurotrypsin)	pIC50 [1]	Activity [2]
O=C(NCc1ccc(Cl)s1)c1ccc(NC(=O)c2ccc(-c3nc4cc(Cl)c(Cl)cc4[nH]3)cc2)c(C(=O)O)c1	5.48		
NCCCC[C@H](N)C(=O)O.O=C(Nc1ccc(Cl)cc1)c1ccc(NC(=O)c2ccc(-c3nc4cc(Cl)c(Cl)cc4[nH]3)cc2)c(C(=O)O)c1		< 3.82	5.52%
